The values below come from patent publication US20190060249A1 (priority 2017, published 2019).

One series deals with T1, ALDH4A1 (Homo sapiens, UniProt P30038).
T1 sequence (P30038 25-563): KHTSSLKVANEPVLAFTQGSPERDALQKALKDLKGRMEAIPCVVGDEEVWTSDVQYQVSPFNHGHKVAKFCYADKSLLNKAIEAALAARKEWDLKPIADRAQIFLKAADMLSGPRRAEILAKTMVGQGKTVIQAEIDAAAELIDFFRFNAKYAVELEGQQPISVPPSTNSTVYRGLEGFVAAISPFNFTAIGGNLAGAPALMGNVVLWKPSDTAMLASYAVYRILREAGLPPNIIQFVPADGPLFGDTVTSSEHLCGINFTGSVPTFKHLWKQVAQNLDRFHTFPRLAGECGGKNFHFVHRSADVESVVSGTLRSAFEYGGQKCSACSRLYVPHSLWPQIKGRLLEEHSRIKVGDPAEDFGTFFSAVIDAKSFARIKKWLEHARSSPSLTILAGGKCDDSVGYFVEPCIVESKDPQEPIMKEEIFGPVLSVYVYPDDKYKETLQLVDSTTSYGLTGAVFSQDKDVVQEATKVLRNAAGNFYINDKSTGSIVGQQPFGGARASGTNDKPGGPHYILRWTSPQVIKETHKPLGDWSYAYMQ
The series is described as follows: ALDH enzymatic assay, recombinant ALDH4A1. Format: biochemical. The conditions noted are these: 5 μg/ml recombinant enzyme, 10 mM acetaldehyde, 20 μM Alda-341. The procedure:
ALDH enzymatic assay: ALDH1A1, ALDH1A2, 2, 3A1, 3A2, 4A1, 5A1, 7A1 were measured as previously described using 5 μg/ml of recombinant protein (Chen, C. H., Cruz, L. A., and Mochly-Rosen, D. (2015) Pharmacological recruitment of aldehyde dehydrogenase 3A1 (ALDH3A1) to assist ALDH2 in acetaldehyde and ethanol metabolism in vivo. Proceedings of the National Academy of Sciences of the United States of America 112, 3074-3079). […] Assays were conducted in 50 mM NaPPi buffer (pH 7.4) in the presence of 2.5 mM NAD^+ and 10 mM substrate and measured in triplicate at 25° C. Dose response curve fits and EC50's were calculated using GraphPad Prism 7 software.

Another series deals with T2, ALDH3A1 (Homo sapiens, UniProt P30838).
T2 sequence (P30838 1-453): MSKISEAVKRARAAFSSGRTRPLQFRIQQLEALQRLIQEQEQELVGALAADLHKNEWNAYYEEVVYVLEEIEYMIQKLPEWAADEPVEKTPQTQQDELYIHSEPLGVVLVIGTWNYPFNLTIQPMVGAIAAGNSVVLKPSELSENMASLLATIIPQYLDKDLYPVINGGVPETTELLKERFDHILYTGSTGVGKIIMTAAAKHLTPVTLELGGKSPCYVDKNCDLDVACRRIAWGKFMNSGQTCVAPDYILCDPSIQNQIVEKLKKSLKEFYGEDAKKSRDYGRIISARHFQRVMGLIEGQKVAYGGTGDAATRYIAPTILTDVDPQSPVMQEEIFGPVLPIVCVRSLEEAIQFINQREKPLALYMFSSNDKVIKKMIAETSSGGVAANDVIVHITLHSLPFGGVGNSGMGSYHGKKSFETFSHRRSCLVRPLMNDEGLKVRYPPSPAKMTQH
The series is described as follows: ALDH fluorescence-coupled enzymatic assay, all-trans-retinal substrate, ALDH3A1. In kind it is biochemical. The procedure:
Assay conditions were modified from the original enzyme assay protocol above using 50 mM NaPPi buffer (pH 7.4), 2.5 mM NAD^+, 10 mM acetaldehyde or all-trans-retinal substrate with the addition of 1 U/mL diaphorase and 0.1 mM resazurin for the secondary reaction. Measurements were collected in triplicate at 25° C.

Series [1] relates to mouse WT EpCAM+/CD24+-sorted cells. Kind of series: Salisphere formation assay, mouse. In kind it is cell-based. The conditions noted are these: 25 μM Alda-341 over 7 days. Here is the method:
Salisphere formation assay: Cells isolated from mouse submandibular glands (SMG) were FACS sorted using cell surface markers EpCAM and CD24 as previously described and seeded on matrigel (BD Biosciences, BD356235). Cells were grown in DMEM/F12+GlutaMax (Gibco, 10565-018) media containing 10% FBS, 1× anti-anti, 1% N2 supplement (Gibco), 20 ng/mL […] (Sigma-Aldrich), 20 ng/mL fibroblast growth factor-2 (Sigma-Aldrich), 10 μg/mL insulin (Sigma-Aldrich), 1 μM dexamethasone (Sigma-Aldrich), 10 μM […] (Stem Cell Technologies). Spheres were passaged every 7 days by dissociating into single cells by incubating in 1 mg/mL dispase (BD Biosciences) for 20 minutes and 0.25% trypsin-EDTA for 20 minutes. Spheres were grown for 7 days and imaged with a BZ-X710 Keyence microscope using the z-stack function. Images were stitched together into a single image and analyzed using ImageJ (NIH) to quantify sphere number and area. Experiments were repeated at least 3 independent times.
Sphere number per well quantified by Image J (NIH). 6 replicates per group.

The subject of series [2] is murine WT EpCAM+/CD24+-sorted cells. Kind of series: Annexin V assay. In kind it is cell-based, mouse. The conditions noted are these: 100 μM Alda-341; Annexin V and propidium iodide, FACS. The procedure:
Annexin V^+PI^+ are interpreted as late apoptotic cells and appear in the upper right quadrant. 5-6 replicates per group.
Cells were dissociated from matrigel, stained with Biolegend's FITC Annexin V Apoptosis Detection Kit with Propidium Iodide ([…]), and analyzed by flow cytometry. Annexin V^+PI^− cells were analyzed as early apoptotic cells and Annexin V^+PI^+ cells were analyzed as late apoptotic cells. Five to six replicates per group were assayed.

The test system of series [3] is salispheres of C57BL/6 mice. The series is described as follows: Organoid formation assay. In kind it is cell-based, mouse. The following applies: 25 μM Alda-341, 7 d. The procedure:
Organoids, defined as having greater than or equal to 5 buds, were blindly counted and quantified as a ratio of organoid number to total number of organoids and undifferentiated spheres. 4 replicates per group. All error bars represent SEM. *=p<0.05; **=p<0.01; ***=p<0.001 (Student's t-test).
Organoid formation assay: Spheres were dissociated in 1 mg/mL dispase (BD Biosciences) for 20 minutes and resuspended in 80% collagen, 10% 10× F12, and 10% Solution C (2.2 g NaHCO3 in 100 mL of 0.05 N NaOH and 200 mM HEPES) and combined with 60% matrigel. 200 spheres per well were plated in a Millicell cell culture insert (EMD Millipore) with sphere media. Organoids defined as having greater than or equal to 5 buds formed after 2-3 d in culture and were grown for 7 d before imaging with a BZ-X710 Keyence microscope using the z-stack function. Images were stitched together into a single image and the number of differentiated organoids and undifferentiated spheres were blindly counted and quantified as a ratio of organoid number to total number of organoids and undifferentiated spheres. Experiments were repeated at least three independent times.

For series [4] the following is noted: C57BL/6 female mice irradiated with 30 Gy, treated 8 weeks with Alda-341. The procedure:
Pathology: A complete necropsy was performed by a certified veterinarian. Tissues from brain, heart, kidney, liver, esophagus, thymus, trachea, thyroid, lung, spleen, pancreas, trachea, stomach, pancreas, intestines, bladder, uterus and ovary were fixed on slides and scored for inflammation, necrosis, and apoptosis from a scale of 0 to 5. A complete blood count and blood chemistry panel was assessed by Stanford's Veterinary Services Center.

Molecules are shown by their SMILES.

Take `C=C(C)[C@H]1CC=C(C)CC1` [Alda-341, D-limonene]: on ALDH4A1, the “catalytic activity of ALDH4A1” value is “did not increase”. Further, the “catalytic activity of all trans-retinal in ALDH3A1” value at ALDH3A1 is recorded as “did not increase”. For the same molecule, the “increase in total salisphere number compared to vehicle control” value in series [1] is roughly 15%. Moreover, in series [2], the “fewer early and late apoptotic cells compared to vehicle control” value is “about 60%”. Also, the “more organoids than vehicle-treated control” value in series [3] was 25%. The “complete blood count and blood chemistry panel” value in series [4] was “normal complete blood count and blood chemistry panel”.
